In patent US9790173B2, “Alpha-7 nicotinic acetylcholine receptor modulators and uses thereof-I” (MERCK SHARP & DOHME CORP., priority 2012, dated 2017):

Biological target: T1, rat α7 nAChRs (Rattus norvegicus, UniProt Q05941)
T1 construct: expressed in transfected cells; host or cells: GH4C1 cells (rat pituitary line) stably expressing α7 nAChR
Assay: Automated planar patch clamp (Patchliner) electrophysiology, α7 nAChR PAM activity
Assay type: cell-based
Set-up: key to Type I or Type II: I: Type 1 predominately affects the peak current; Type II modulators affect the peak current and also delay the desensitization of the receptor
Settings: for Type I or Type II: modulator type based on the electrophysiology trace; for activation at 3 µM: GH4-C1, 3 μM compound in the presence of acetylcholine, GH4C1 cells expressing rat α7 nAChRs, peak current, read-out: Peak potentiation at 3 μM compound
Method: Tested compounds were prepared by serial dilutions of 10 mM stock solution in DMSO to concentrations of the compound 1000 times higher than its final concentration. The DMSO stock solutions were then diluted 1:100 in the recording buffer bringing DMSO concentration to 1%. These intermediate solutions were further diluted 10 times with buffer to obtain final concentrations and lower DMSO concentration to 0.1%. […]
Compounds of the invention may be evaluated by electrophysiology using a Patchliner® (Nanion Technologies GmbH, Germany), an automated planar patch-clamp platform of medium throughput was used as a first step in electrophysiological assessment of α7 nAChR positive allosteric modulators (PAMs).
Briefly, intracellular (KCl—50 mM, NaCl—10 mM, KF—60 mM, EGTA—20 mM, HEPES—10 mM, pH—7.2, 285 mOsmol) and extracellular (NaCl—140 mM, KCl—4 mM, CaCl2—2 mM, MgCl2—1 mM, HEPES—10 mM, D-Glucose—5 mM, pH—7.4, 298 mOsmol) solutions were automatically pipetted onto NPC-16 chip (medium resistance ˜2.5-2.6 MΩ). Suspension of GH4C1 cells expressing rat α7 nAChRs was introduced in 4 wells of a medium resistance chip and suction was applied to attract cells in the holes. The extracellular solution was subsequently exchanged to high calcium solution (NaCl—80 mM, KCl—3 mM, CaCl2—45 mM, HEPES—10 mM, pH—7.4, 298 mOsmol) followed by gigaohm seal formation and obtaining whole-cell configuration. The rest of protocol was carried out in the high-calcium recording solution. Holding potential was −70 mV throughout the protocol. A control response to 60 or 100 μM of ACh was obtained first. Next, a cell was pre-incubated with compound of interest at 3 μM for ˜30 s after which the compound was co-applied with acetylcholine.
Amplitude of the responses was measured in HEKA Patchmaster software (HEKA Elektronik, Germany) and percentage of potentiation calculated. Recording was repeated […] a minimum of two replicates had been obtained per compound.
Compounds shown in Table 1 were evaluated by automated planar patch clamp on the Patchliner® as described in Example P2.1. […] The compounds are designated either as Type I or Type II modulators based on the electrophysiology trace. Type 1 predominately affects the peak current. Type II modulators affect the peak current and also delay the desensitization of the receptor.

T1 sequence (Q05941 23-502): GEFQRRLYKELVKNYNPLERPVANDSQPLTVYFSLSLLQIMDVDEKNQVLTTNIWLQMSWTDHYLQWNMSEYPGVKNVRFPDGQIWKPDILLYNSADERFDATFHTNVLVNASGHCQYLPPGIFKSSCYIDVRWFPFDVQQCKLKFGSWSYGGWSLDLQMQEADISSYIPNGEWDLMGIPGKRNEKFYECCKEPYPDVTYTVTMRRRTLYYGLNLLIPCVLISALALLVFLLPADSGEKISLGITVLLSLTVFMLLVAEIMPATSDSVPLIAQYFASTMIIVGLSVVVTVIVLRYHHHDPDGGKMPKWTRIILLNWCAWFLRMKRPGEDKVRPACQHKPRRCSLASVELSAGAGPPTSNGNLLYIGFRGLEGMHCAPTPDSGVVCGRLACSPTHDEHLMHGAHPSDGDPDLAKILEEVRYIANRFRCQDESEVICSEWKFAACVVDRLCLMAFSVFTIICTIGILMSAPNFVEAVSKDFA

SMILES: CCc1ccc(F)cc1NC[C@H]1[C@H](c2ccc(S(N)(=O)=O)cc2)C1(C)C [Example 39, ±trans 4-[3-{[(2-ethyl-5-fluorophenyl)amino]methyl}-2,2-dimethylcyclopropyl]benzenesulfonamide]
- Type I or Type II: II

SMILES: NS(=O)(=O)c1ccc([C@@H]2C[C@H]2CNc2ccc(C(F)(F)F)cn2)cc1 [Example 19, 4-[(1R,2R)-2-({[5-(trifluoromethyl)pyridin-2-yl]amino}methyl)cyclopropyl]benzenesulfonamide]
- activation at 3 µM: 762%
- Type I or Type II: I

SMILES: CC1(C)[C@H](CNc2ccccc2)[C@H]1c1ccc(S(N)(=O)=O)cc1 [Example 5, ±trans 4-{2,2-dimethyl-3-[(phenylamino)methyl]cyclopropyl}benzenesulfonamide]
- Type I or Type II: II

SMILES: CC1(C)[C@H](CNc2cncc(F)c2)[C@H]1c1ccc(S(N)(=O)=O)cc1 [Example 10, ±trans 4-[3-{[(5-fluoropyridin-3-yl)amino]methyl}-2,2-dimethylcyclopropyl]benzenesulfonamide]
- Type I or Type II: II

SMILES: Cc1cc(F)ccc1NC[C@@H]1[C@@H](c2ccc(S(N)(=O)=O)cc2)C1(C)C (racemic) [Example 38, ±trans 4-[-3-{[(4-fluoro-2-methylphenyl)amino]methyl}-2,2-dimethylcyclopropyl]benzenesulfonamide]
- Type I or Type II: II

SMILES: COc1ccc(Cl)cc1NC[C@@H]1[C@@H](c2ccc(S(N)(=O)=O)cc2)C1(C)C [Example 4, ±trans 4-(3-{[(5-chloro-2-methoxyphenyl)amino]methyl}-2,2-dimethylcyclopropyl)benzenesulfonamide]
- Type I or Type II: II

SMILES: CC1(C)C(c2ccc(S(N)(=O)=O)cc2)[C@H]1CNc1ccc(F)cc1OC(F)F (mixture of isomers) [Example 34, ±trans 4-[3-({[2-(difluoromethoxy)-4-fluorophenyl]amino}methyl)-2,2-dimethylcyclopropyl]benzenesulfonamide]
- Type I or Type II: II

SMILES: COc1ccc(Cl)cc1NC[C@@H]1[C@@H](c2ccc(S(=O)(=O)NN)cc2)C1(C)C [Example 56, ±trans 4-[3-{[(5-chloro-2-methoxyphenyl)amino]methyl}-2,2-dimethylcyclopropyl]benzenesulfonohydrazide]
- activation at 3 µM: 131%
- Type I or Type II: I

SMILES: CCOc1ccccc1NC[C@@H]1[C@@H](c2ccc(S(N)(=O)=O)cc2)C1(C)C [Example 44, ±trans 4-[3-{[(2-ethoxyphenyl)amino]methyl}-2,2-dimethylcyclopropyl]benzenesulfonamide]
- Type I or Type II: I

SMILES: COc1ccc(Cl)cc1NC[C@@H]1[C@@H](c2ccc(S(=O)(=O)NO)cc2)C1(C)C [Example 55, ±trans 4-[3-{[(5-chloro-2-methoxyphenyl)amino]methyl}-2,2-dimethylcyclopropyl]-N-hydroxybenzenesulfonamide]
- activation at 3 µM: 724%
- Type I or Type II: I

SMILES: Cc1cc(F)c(F)cc1NC[C@H]1[C@H](c2ccc(S(N)(=O)=O)cc2)C1(C)C [Example 32, 4-[(1S,3S)-3-{[(4,5-difluoro-2-methylphenyl)amino]methyl}-2,2-dimethylcyclopropyl]benzenesulfonamide]
- Type I or Type II: II

SMILES: COc1ccc(Cl)cc1NC[C@@H]1[C@@H](c2ccc(NS(N)(=O)=O)cc2)C1(C)C (racemic) [Example 59, ±trans N-[4-(3-{[(5-chloro-2-methoxyphenyl)amino]methyl}-2,2-dimethylcyclopropyl)phenyl]sulfuric diamide]
- Type I or Type II: I

SMILES: Cc1ccc(F)cc1NC[C@@H]1[C@@H](c2ccc(S(N)(=O)=O)cc2)C1(C)C [Example 29, 4-[(1R,3R)-3-{[(5-fluoro-2-methylphenyl)amino]methyl}-2,2-dimethylcyclopropyl]benzenesulfonamide]
- activation at 3 µM: 456%
- Type I or Type II: I

SMILES: COc1ccc(Cl)cc1NC[C@@H]1[C@@H](c2ccc(-c3ccccc3O)cc2)C1(C)C [Example 43, ±trans 4′-[3-{[(5-chloro-2-methoxyphenyl)amino]methyl}-2,2-dimethylcyclopropyl]biphenyl-2-ol]
- activation at 3 µM: 100%
- Type I or Type II: I

SMILES: CC1(C)[C@H](CNc2cc(F)ccc2OCC(F)(F)F)[C@H]1c1ccc(S(N)(=O)=O)cc1 [Example 16, 4-[(1R,3R)-3-({[5-fluoro-2-(2,2,2-trifluoroethoxy)phenyl]amino}methyl)-2,2-dimethylcyclopropyl]benzenesulfonamide]
- activation at 3 µM: 236%
- Type I or Type II: I

SMILES: COc1ccc(Cl)cc1N(C)C[C@@H]1[C@@H](c2ccc(S(N)(=O)=O)cc2)C1(C)C [Example 7, ±trans 4-(3-{[(5-chloro-2-methoxyphenyl)(methyl)amino]methyl}-2,2-dimethylcyclopropyl)benzenesulfonamide]
- activation at 3 µM: 134%
- Type I or Type II: I

SMILES: NS(=O)(=O)c1ccc([C@H]2C[C@@H]2CNc2ccc(C(F)(F)F)cn2)cc1 [Example 12, ±trans 4-[2-({[5-(trifluoromethyl)pyridin-2-yl]amino}methyl)cyclopropyl]benzenesulfonamide]
- activation at 3 µM: 401%
- Type I or Type II: I

SMILES: CC1(C)[C@H](CNc2ccc(F)cc2C(F)(F)F)[C@H]1c1ccc(S(N)(=O)=O)cc1 [Example 15, 4-[(1R,3R)-3-({[4-fluoro-2-(trifluoromethyl)phenyl]amino}methyl)-2,2-dimethylcyclopropyl]benzenesulfonamide]
- activation at 3 µM: 413%
- Type I or Type II: I

SMILES: NS(=O)(=O)c1ccc([C@H]2C[C@@H]2CNc2ccc(F)c(F)c2)cc1 [Example 2, ±trans 4-(2-{[(3,4-difluorophenyl)amino]methyl}cyclopropyl)benzenesulfonamide]
- Type I or Type II: II

SMILES: CC1(C)C(c2ccc(S(N)(=O)=O)cc2)[C@H]1CNc1ccc(F)c(C(F)(F)F)c1 (mixture of isomers) [Example 33, ±trans 4-[3-({[4-fluoro-3-(trifluoromethyl)phenyl]amino}methyl)-2,2-dimethylcyclopropyl]benzenesulfonamide]
- Type I or Type II: II

SMILES: CC1(C)[C@H](CNc2ccc(F)c(F)c2)[C@H]1c1ccc(S(N)(=O)=O)cc1 [Example 14, ±trans 4-[3-{[(3,4-difluorophenyl)amino]methyl}-2,2-dimethylcyclopropyl]benzenesulfonamide]
- Type I or Type II: II

SMILES: CC1(C)[C@@H](CNc2cc(OC(F)(F)F)ccc2F)[C@@H]1c1ccc(S(N)(=O)=O)cc1 [Example 40, ±trans 4-[3-({[2-fluoro-5-(trifluoromethoxy)phenyl]amino}methyl)-2,2-dimethylcyclopropyl]benzenesulfonamide]
- activation at 3 µM: 309%
- Type I or Type II: II

SMILES: NS(=O)(=O)c1ccc([C@@H]2C[C@H]2CNc2ccc(F)cc2)cc1 [Example 18, 4-[(1R,2R)-2-{[(4-fluorophenyl)amino]methyl}cyclopropyl]benzenesulfonamide]
- Type I or Type II: I

SMILES: NS(=O)(=O)c1ccc([C@@H]2C[C@H]2CNc2cc(F)ccc2OC(F)(F)F)cc1 (stereo in doubt) [Example 53, 4-[(1R,2R)-2-({[5-fluoro-2-(trifluoromethoxy)phenyl]amino}methyl)cyclopropyl]benzenesulfonamide]
- Type I or Type II: II
